Data taken from US9266830B2, “Pesticidal arylpyrrolidines” (Bayer Intellectual Property GmbH, priority 2007, dated 2016).

Key:
Type in all cases: in vivo
Boophilus microplus [1] = assay: Boophilus microplus test (injection); conditions: application rate 20 μg/animal, adult engorged females, after 7 days
Protocol: (§1) Solvent: dimethyl sulfoxide
To produce a suitable preparation of active compound, 10 mg of active compound are dissolved in 0.5 ml solvent, and the concentrate is diluted with solvent to the desired concentration. Five adult engorged female ticks (Boophilus microplus) are injected with compound solution into the abdomen. Ticks are transferred into replica plates and incubated in a climate chamber for a period of time. Egg deposition of fertile eggs is monitored. After 7 days mortality in % is determined 100% means that all eggs are infertile; 0% means that all eggs are fertile.

Boophilus microplus [2] = assay: Boophilus microplus (dip); conditions: application rate 100 ppm, adult engorged females, after 7 days
Protocol: as §1
To produce a suitable preparation of active compound, 10 mg of active compound are dissolved in 0.5 ml solvent, and the concentrate is diluted with water to the desired concentration. Eight to ten adult engorged female Boophilus microplus ticks are placed in perforated plastic beakers and immersed in aqueous compound solution for one minute. Ticks are transferred to a filter paper in a plastic tray. Egg deposition of fertile eggs is monitored after. After 7 days mortality in % is determined 100% means that all the ticks have been killed; 0% means that none of the ticks have been killed.

Lucilia cuprina larvae = assay: Lucilia cuprina test (larvae in minced horse meat); conditions: application rate 100 ppm, larvae, after 2 days
Protocol: as §1
To produce a suitable preparation of active compound, 10 mg of active compound are dissolved in 0.5 ml solvent, and the concentrate is diluted with water to the desired concentration. Approximately 20-30 (Lucilia cuprina larvae) are transferred into a test tube containing 1 cm^3 of minced horse meat and 0.5 ml aqueous dilution of test compound. After 2 days mortality in % is determined 100% means that all the larvae have been killed; 0% means that none of the larvae have been killed.

Musca domestica = Musca domestica test (sugar sponge); conditions: application rate 100 ppm, adults, after 2 days
Protocol: as §1
To produce a suitable preparation of active compound, 10 mg of active compound are dissolved in 0.5 ml solvent, and the concentrate is diluted with water to the desired concentration. Prior to the assay, a piece or kitchen sponge is soaked with a mixture of sugar and compound solution and placed into a container. 10 adults (Musca domestica) are placed into the container and closed with a perforated lid. After 2 days mortality in % is determined. 100% means that all the flies have been killed; 0% means that none of the flies have been killed.

Amblyomma hebraeum = Amblyomma hebraeum test (AMBYHE), nymph immersion; conditions: application rate 100 ppm, nymphs, after 42 days
Protocol: as §1
To produce a suitable preparation of active compound, 10 mg of active compound are dissolved in 0.5 ml solvent, and the concentrate is diluted with water to the desired concentration. Nymphs of the tick Amblyomma hebraeum are placed in perforated plastic beakers and immersed in aqueous compound solution for one minute. Ticks are transferred to a filter paper in a Petri dish and incubated in a climate chamber for 42 days.
After 42 days mortality in % is determined 100% means that all the ticks have been killed; 0% means that none of the ticks have been killed.

Compound	activity (100% means that all eggs are infertile) (Boophilus microplus [1])	activity (mortality in %) (Boophilus microplus [2])	activity (mortality in %) (Lucilia cuprina larvae)	activity (mortality in %) (Musca domestica)	activity (mortality in %) (Amblyomma hebraeum)
CC=CC(=O)NCc1ccc(N2CCC(c3cc(Cl)cc(Cl)c3)(C(F)(F)F)C2)cc1C(F)(F)F (stereo not shown) [1-174]	100%	80%	–	–	–
CCCNC(=O)NCc1ccc(N2CCC(c3cc(Cl)cc(Cl)c3)(C(F)(F)F)C2)cc1Cl (stereo not shown) [1-79]	100%	–	90%	–	–
CNC(=O)NCc1ccc(N2CCC(c3cc(C(F)(F)F)cc(C(F)(F)F)c3)(C(F)(F)F)C2)cc1C(F)(F)F (stereo not shown) [1-301]	100%	80%	–	–	–
CC(C)(C)OC(=O)NCc1ccc(N2CCC(c3cc(Cl)c(Cl)c(Cl)c3)(C(F)(F)F)C2)cc1Cl (stereo not shown) [1-694]	100%	–	80%	–	–
O=C(CC(F)(F)F)NCc1sc(N2CCC(c3cc(Cl)cc(Cl)c3)(C(F)(F)F)C2)nc1C(F)(F)F (stereo not shown) [5-22]	100%	–	–	95%	–
C=CCNC(=O)NCc1ccc(N2CCC(c3cc(Cl)cc(Cl)c3)(C(F)(F)F)C2)cc1Cl (stereo not shown) [1-87]	100%	–	80%	–	–
O=C(Cn1cncn1)NCc1ccc(N2CCC(c3cc(Cl)cc(Cl)c3)(C(F)(F)F)C2)cc1C(F)(F)F (stereo not shown) [1-558]	100%	80%	–	–	–
O=C(NCc1ccc(N2CCC(c3cc(Cl)cc(Cl)c3)(C(F)(F)F)C2)cc1C(F)(F)F)N1CCOCC1 (stereo not shown) [1-257]	100%	–	95%	–	–
CC(C)CC(=O)NCc1ccc(N2CCC(c3cc(Cl)cc(Cl)c3)(C(F)(F)F)C2)cc1Cl (stereo not shown) [1-7]	100%	80%	–	–	–
C#CCNC(=O)NCc1ccc(N2CCC(c3cc(Cl)cc(Cl)c3)(C(F)(F)F)C2)cc1C(F)(F)F (stereo not shown) [1-231]	100%	–	–	95%	–
CSCCNC(=O)NCc1ccc(N2CCC(c3cc(Cl)cc(Cl)c3)(C(F)(F)F)C2)cc1C(F)(F)F (stereo not shown) [1-244]	100%	–	80%	–	–
NCc1ccc(N2CCC(c3cc(Cl)c(Cl)c(Cl)c3)(C(F)(F)F)C2)cc1Cl (stereo not shown) [1-336]	100%	–	90%	–	–
NCc1ccc(N2CCC(c3cc(C(F)(F)F)cc(C(F)(F)F)c3)(C(F)(F)F)C2)cc1Cl (stereo not shown) [1-306]	–	–	90%	–	–
O=C(CC(F)(F)F)NCc1ccc(N2CCC(c3cc(Cl)cc(Cl)c3)(C(F)(F)F)C2)cc1C(F)(F)F (stereo not shown) [1-162]	100%	95%	–	–	–
O=C(NCc1ccc(N2CCC(c3cc(C(F)(F)F)cc(C(F)(F)F)c3)(C(F)(F)F)C2)cc1C(F)(F)F)NC1CC1 (stereo not shown) [1-305]	100%	80%	–	–	90%
N#CCC(=O)NCc1ccc(N2CCC(c3cc(Cl)cc(Cl)c3)(C(F)(F)F)C2)cc1Cl (stereo not shown) [1-39]	100%	–	–	90%	–
O=S(=O)(CC(F)(F)F)NCc1ccc(N2CCC(c3cc(Cl)c(Cl)c(Cl)c3)(C(F)(F)F)C2)cc1C(F)(F)F (stereo not shown) [1-334]	100%	–	90%	–	–
CCNC(=O)NCc1ccc(N2CCC(c3cc(Cl)cc(Cl)c3)(C(F)(F)F)C2)cc1C(F)(F)F (stereo not shown) [1-220]	100%	–	–	90%	–
O=C(NCc1ccc(N2CCC(c3cc(Cl)cc(Cl)c3)(C(F)(F)F)C2)cc1C(F)(F)F)C(F)F (stereo not shown) [1-164]	100%	95%	–	–	–

Compound	activity (100% means that all eggs are infertile) (Boophilus microplus [1])	activity (mortality in %) (Boophilus microplus [2])	activity (mortality in %) (Lucilia cuprina larvae)	activity (mortality in %) (Musca domestica)	activity (mortality in %) (Amblyomma hebraeum)
CSCCC(=O)NCc1ccc(N2CCC(c3cc(Cl)cc(Cl)c3)(C(F)(F)F)C2)cc1Cl (stereo not shown) [1-467]	100%	90%	–	–	90%
CCC(=O)NCc1sc(N2CCC(c3cc(Cl)cc(Cl)c3)(C(F)(F)F)C2)nc1C(F)(F)F (stereo not shown) [5-4]	100%	–	–	85%	–
O=C(CC(F)(F)F)NCc1sc(N2CCC(c3cc(C(F)(F)F)cc(C(F)(F)F)c3)(C(F)(F)F)C2)nc1C(F)(F)F (stereo not shown) [5-150]	100%	–	–	95%	–
CN(Cc1ccc(N2CCC(c3cc(Cl)cc(Cl)c3)(C(F)(F)F)C2)cc1Cl)C(=O)C1CC1 (stereo not shown) [1-74]	100%	–	90%	–	–
O=C(NCc1ccccn1)c1sc(N2CCC(c3cc(Cl)cc(Cl)c3)(C(F)(F)F)C2)nc1C(F)(F)F (stereo not shown) [4-9]	–	–	80%	–	–
COCCNC(=O)NCc1ccc(N2CCC(c3cc(Cl)cc(Cl)c3)(C(F)(F)F)C2)cc1C(F)(F)F (stereo not shown) [1-243]	100%	–	95%	–	–
CCC(=O)NCc1ccc(N2CCC(c3cc(C(F)(F)F)cc(C(F)(F)F)c3)(C(F)(F)F)C2)cc1Cl (stereo not shown) [1-307]	100%	–	–	–	80%
O=C(NCC(F)(F)F)c1sc(N2CCC(c3cc(Cl)c(Cl)c(Cl)c3)(C(F)(F)F)C2)nc1C(F)(F)F (stereo not shown) [4-21]	100%	–	–	90%	–
COCCNC(=O)NCc1ccc(N2CCC(c3cc(Cl)cc(Cl)c3)(C(F)(F)F)C2)cc1Cl (stereo not shown) [1-97]	100%	–	90%	–	–
CSCCC(=O)NCc1ccc(N2CCC(c3cc(Cl)cc(Cl)c3)(C(F)(F)F)C2)cc1C(F)(F)F (stereo not shown) [1-509]	100%	–	–	–	90%
CCSCC(=O)NCc1ccc(N2CCC(c3cc(Cl)cc(Cl)c3)(C(F)(F)F)C2)cc1C(F)(F)F (stereo not shown) [1-499]	100%	–	–	90%	–
O=C(CC(F)(F)F)NCc1ccc(N2CCC(c3cc(Cl)c(Cl)c(Cl)c3)(C(F)(F)F)C2)cc1Br (stereo not shown) [1-347]	100%	–	–	–	90%
CN(C)C(=O)NCc1ccc(N2CCC(c3cc(Cl)cc(Cl)c3)(C(F)(F)F)C2)cc1Cl (stereo not shown) [1-118]	100%	–	–	–	90%
O=C(NCc1ccc(N2CCC(c3cc(Cl)cc(Cl)c3)(C(F)(F)F)C2)cc1Cl)NCC(F)(F)F (stereo not shown) [1-78]	100%	80%	–	–	–
CCNC(=O)NCc1ccc(N2CCC(c3cc(Cl)cc(Cl)c3)(C(F)(F)F)C2)cc1Cl (stereo not shown) [1-77]	100%	80%	–	–	–
CCNC(=O)NCc1ccc(N2CCC(c3cc(C(F)(F)F)cc(C(F)(F)F)c3)(C(F)(F)F)C2)cc1C(F)(F)F (stereo not shown) [1-302]	100%	90%	–	–	–
C=CCNC(=O)NCc1ccc(N2CCC(c3cc(Cl)cc(Cl)c3)(C(F)(F)F)C2)cc1C(F)(F)F (stereo not shown) [1-230]	100%	–	–	–	80%
Cc1nc(N2CCC(c3cc(Cl)cc(Cl)c3)(C(F)(F)F)C2)ncc1C(=O)NCC(F)(F)F (stereo not shown) [2-69]	100%	–	90%	–	–
O=C(CC(F)(F)F)NCc1ccc(N2CCC(c3cc(C(F)(F)F)cc(C(F)(F)F)c3)(C(F)(F)F)C2)nc1C(F)(F)F (stereo not shown) [1-404]	100%	–	–	–	85%
